What was measured:
[1] = tested on: GISTs with KIT exon 11 primary mutations; settings: cited from earlier work
[2] = tested on: advanced gastrointestinal stromal tumor (GIST); test: Multicenter, global, randomized, open-label, phase 3 study of ripretinib versus sunitinib with baseline ctDNA analysis (Examples 1 and 5); format: in vivo, human; settings: for forest plot of PFS by KIT exon 11 mutational subgroups from baseline ctDNA: FIG. 10; for forest plot of OS by KIT exon 11 mutational subgroups from baseline ctDNA / forest plot of OS by KIT mutational status from baseline ctDNA: Interim Analysis 2; for forest plot of OS by KIT exon 11 mutational subgroups from baseline ctDNA: FIG. 14; for forest plot of ORR by KIT exon 11 mutational subgroups from baseline ctDNA: FIG. 12; for forest plot of OS by KIT mutational status from baseline ctDNA: FIG. 13; for median PFS by IRR: KIT mutations at exon 17/18, excluding KIT exons 9, 13, and/or 14, FIG. 4; for forest plot of PFS by KIT mutational status from baseline ctDNA: FIG. 9; for Median Progression-Free Survival (mPFS): patients with mutations in KIT exon 11 and 17 or 18 only (ctDNA; excluding exons 9, 13, 14), by IRR, ripretinib 150 mg QD or sunitinib 50 mg QD; for forest plot of ORR by KIT mutational status from baseline ctDNA: FIG. 11; for OS HR, ripretinib versus sunitinib (Cox model) / PFS HR, ripretinib versus sunitinib (Cox model): sex, and race
Method: This study is a multicenter, global, randomized, open-label, phase 3 study which enrolled adult patients with advanced gastrointestinal stromal tumor (GIST) who progressed on or had intolerance to imatinib. Randomization was 1:1 to ripretinib 150 mg once daily (QD) or sunitinib 50 mg once daily (QD) (4 weeks on/2 weeks off). Baseline peripheral whole blood was analyzed by Guardant360, a 74-gene circulating tumor DNA (ctDNA) next-generation sequencing (NGS)-based assay.
Of the 453 patients in the overall intent-to-treat population (ITT), baseline ctDNA analysis was performed in 362 patients for whom evaluable samples were available. ctDNA was detected in 280 samples and KIT mutations were detected in 213 patients. Primary mutations in KIT were detected in exon 11 in 157 patients and in exon 9 in 36 patients. Common resistance mutations in KIT were in exons 17/18 in 89 patients and exons 13/14 in 81 patients. In patients with a KIT exon 11 primary mutation, 52 patients had mutations in exon 17 or 18 only, 41 had mutations in exon 13 or 14 only, and 22 patients had mutations in both exon 13 or 14 and exon 17 or 18. […] Efficacy in patients with detectable ctDNA in KIT exon 11 and the ITT populations was consistent with the primary analysis based on tumor data used for randomization. The subgroup safety profiles were consistent with the primary analysis.
Cox proportional hazards analyses of PFS and OS were conducted to examine the interaction of treatment arm and mutational subgroup with or without adjustment for baseline characteristics in the study of Example 1.
(§1) With respect to PFS, a Cox model with the interaction effect was used and the Bonferroni adjustment was applied. […] The treatment effect was nominally significant in the KIT exon 11+13/14 and KIT exon 11+17/18 populations before and after performing the Bonferroni correction. […] The results were robust when accounting for multiple treatment comparisons across mutational subgroups.
as §1, with “OS,” for “PFS,”, “exon” for “exon 11+13/14 and KIT exon”, “population” for “populations”, “correction, but not in the KIT exon 11+13/14 population.” for “correction.”

[3] = tested on: gastrointestinal stromal tumors (GIST); test: Bridging study of second-line ripretinib versus sunitinib in GIST patients in China (Example 3); format: in vivo, human; settings: patients in China with KIT exon 11 and exon 17/18 mutations per tumor tissue ITT population; ripretinib 150 mg once daily or sunitinib 50 mg once daily; FIG. 16
Method: Results from a bridging study, with respect to the study of Example 1 above, of second-line administration of 150 mg once daily ripretinib, as compared to administration of 50 mg once daily sunitinib, in gastrointestinal stromal tumors (GIST) patients in China were obtained. In the study, 21 patients were determined to have mutations at KIT exon 11 and exon 17/18 per the tumor tissue ITT population. Progression-free survival (PFS) was determined with independent radiologic review using mRECIST. A Kaplan-Meier plot of PFS is provided as FIG. 16.

[4] = KIT exon 11 and 17 or 18 only (ctDNA), Data cut 1
[5] = KIT exon 11 and 17 or 18 only (ctDNA), Data cut 2
[6] = KIT exon 11 and exon 17/18, excluding exons 9, 13, and/or 14, extended interim analysis (Interim Analysis 2), FIG. 6
[7] = KIT exon 11 and exon 17/18, excluding exons 9, 13, and/or 14, interim analysis (Interim Analysis 1), FIG. 5
[8] = KIT exon 17/18, excluding exons 9, 13, and/or 14, extended interim analysis (Interim Analysis 2), FIG. 8
[9] = KIT exon 17/18, excluding exons 9, 13, and/or 14, interim analysis (Interim Analysis 1), FIG. 7
[10] = with adjustment for age, Any KIT exon 9 (n = 36)
[11] = with adjustment for age, KIT exon 11 + 13/14 + 17/18 only (n = 22)
[12] = with adjustment for age, KIT exon 11 + 13/14 only (n = 41)
[13] = with adjustment for age, KIT exon 11 + 17/18 only (n = 52)
[14] = with adjustment for age, KIT exon 11 only (n = 41)
[15] = with adjustment for age, Other KIT/PDGFRA (n = 29)
[16] = without adjustment for age, Any KIT exon 9 (n = 36)
[17] = without adjustment for age, KIT exon 11 + 13/14 + 17/18 only (n = 22)
[18] = without adjustment for age, KIT exon 11 + 13/14 only (n = 41)
[19] = without adjustment for age, KIT exon 11 + 17/18 only (n = 52)
[20] = without adjustment for age, KIT exon 11 only (n = 41)
[21] = without adjustment for age, Other KIT/PDGFRA (n = 29)

Cc1ccc(NC(=O)c2ccc(CN3CCN(C)CC3)cc2)cc1Nc1nccc(-c2cccnc2)n1 [imatinib]
2-year relapse-free survival ([1]; adjuvant setting): ~90% | median event-free survival ([1]; metastatic setting): under 2 years

CCn1c(=O)c(-c2cc(NC(=O)Nc3ccccc3)c(F)cc2Br)cc2cnc(NC)cc21 [ripretinib]
forest plot of PFS by KIT exon 11 mutational subgroups from baseline ctDNA ([2]; KIT exon 11 and 17 only, exon 11 and 18 only, any exons 11 and 17, any exon 11 and exon 17 or 18): favor ripretinib treatment | ORR [2, 4]: 44.4% | ORR Response Difference (95% CI), ripretinib versus sunitinib [2, 4]: 44.4% (23.0%, 62.7%) | PFS Hazard Ratio (95% CI), ripretinib versus sunitinib [2, 4]: 0.22 (0.11, 0.44) | ORR ([2]; KIT exon 11 and 17 or 18 only (ctDNA), Data cut 1, listed as Ripretinib): 44.4% | OS [2, 5]: Not Estimable | OS Hazard Ratio (95% CI), ripretinib versus sunitinib [2, 5]: 0.34 (0.15, 0.76) | forest plot of OS by KIT exon 11 mutational subgroups from baseline ctDNA ([2]; KIT exon 11 and 17 or KIT exon 11 and 18 mutations): favors ripretinib treatment | median OS [2, 6]: not estimable | median OS [2, 7]: not estimable | forest plot of ORR by KIT exon 11 mutational subgroups from baseline ctDNA ([2]; KIT exon 11 in combination with KIT exon 17 or 18 mutations): favors ripretinib treatment | PFS, ORR and OS versus sunitinib ([2]; KIT exon 11 only primary mutation and exon 17 or 18 secondary mutations only): superior | median OS [2, 8]: not evaluable | median OS [2, 9]: not evaluable | forest plot of OS by KIT mutational status from baseline ctDNA ([2]; KIT exon 17 and 18 mutations): favors ripretinib treatment | median PFS by IRR [2]: 13.8 months | forest plot of PFS by KIT mutational status from baseline ctDNA ([2]; mutations in KIT exons 17 and 18): favor ripretinib treatment | Median Progression-Free Survival (mPFS) ([2]; Data cut 1): 14.2 months | forest plot of ORR by KIT mutational status from baseline ctDNA ([2]; populations with KIT exons 11, 17 or 18): favors ripretinib treatment | OS HR, ripretinib versus sunitinib (Cox model) [2, 10]: 1.33 | PFS HR, ripretinib versus sunitinib (Cox model) [2, 10]: 3.07 | OS HR, ripretinib versus sunitinib (Cox model) [2, 11]: 2.09 | PFS HR, ripretinib versus sunitinib (Cox model) [2, 11]: 0.96 | OS HR, ripretinib versus sunitinib (Cox model) [2, 12]: 1.91 | PFS HR, ripretinib versus sunitinib (Cox model) [2, 12]: 3.27 | OS HR, ripretinib versus sunitinib (Cox model) [2, 13]: 0.34 | PFS HR, ripretinib versus sunitinib (Cox model) [2, 13]: 0.21 | OS HR, ripretinib versus sunitinib (Cox model) [2, 14]: 1.55 | PFS HR, ripretinib versus sunitinib (Cox model) [2, 14]: 2.54 | OS HR, ripretinib versus sunitinib (Cox model) [2, 15]: 0.63 | PFS HR, ripretinib versus sunitinib (Cox model) [2, 15]: 0.97 | OS HR, ripretinib versus sunitinib (Cox model) [2, 16]: 1.32 | PFS HR, ripretinib versus sunitinib (Cox model) [2, 16]: 2.88 | OS HR, ripretinib versus sunitinib (Cox model) [2, 17]: 2.15 | PFS HR, ripretinib versus sunitinib (Cox model) [2, 17]: 0.98 | OS HR, ripretinib versus sunitinib (Cox model) [2, 18]: 1.88 | PFS HR, ripretinib versus sunitinib (Cox model) [2, 18]: 3.41 | OS HR, ripretinib versus sunitinib (Cox model) [2, 19]: 0.32 | PFS HR, ripretinib versus sunitinib (Cox model) [2, 19]: 0.22 | OS HR, ripretinib versus sunitinib (Cox model) [2, 20]: 1.64 | PFS HR, ripretinib versus sunitinib (Cox model) [2, 20]: 2.53 | OS HR, ripretinib versus sunitinib (Cox model) [2, 21]: 0.78 | PFS HR, ripretinib versus sunitinib (Cox model) [2, 21]: 1.02 | median PFS (independent radiologic review using mRECIST) [3]: not reached

CCN(CC)CCNC(=O)c1c(C)[nH]c(/C=C2\C(=O)Nc3ccc(F)cc32)c1C [sunitinib, reference compound]
forest plot of ORR by KIT mutational status from baseline ctDNA ([2]; KIT exon 9 mutations): favors sunitinib treatment | forest plot of OS by KIT exon 11 mutational subgroups from baseline ctDNA ([2]; KIT exon 11 and 13 or KIT exon 11 and 14 mutations): favors sunitinib treatment | ORR [2, 4]: 0% | ORR ([2]; KIT exon 11 and 17 or 18 only (ctDNA), Data cut 1, listed as Sunitinib): 0% | OS [2, 5]: 17.5 months | median OS [2, 6]: 17.5 months | median OS [2, 7]: 16.9 months | forest plot of ORR by KIT exon 11 mutational subgroups from baseline ctDNA ([2]; KIT exon 11 in combination with KIT exon 13 only): favors sunitinib treatment | forest plot of OS by KIT mutational status from baseline ctDNA ([2]; KIT exon 13 and 14 mutations): favors sunitinib treatment | median OS [2, 8]: 17.5 months | median OS [2, 9]: 17.0 months | median PFS by IRR [2]: 2.8 months | forest plot of PFS by KIT exon 11 mutational subgroups from baseline ctDNA ([2]; exon 11 mutations in combination with exon 13 or exon 14 mutations): favor sunitinib | forest plot of PFS by KIT mutational status from baseline ctDNA ([2]; mutations in KIT exons 9, 13, and 14): favor sunitinib | Median Progression-Free Survival (mPFS) ([2]; Data cut 1): 1.5 months | median PFS (independent radiologic review using mRECIST) [3]: 6.7 months

— patent US20240245660A1, “METHODS OF TREATING GASTROINTESTINAL STROMAL TUMORS” (Deciphera Pharmaceuticals, LLC, priority 2022, published 2024)
